From patent EP4737445A1, “NOVEL SATURATED HETEROCYCLE-SUBSTITUTED HETEROARYL-CARBONOHYDRAZONOYL DICYANIDE COMPOUND AND USE THEREOF” (Korea Institute of Science and Technology, priority 2023, dated 2025)

Columns and labels:
[1] = Liver microsomal stability, mouse; format: in vitro ADME; conditions: 1 µM compound; 0.5 mg/mL microsomes; NADPH; 30 minutes at 37°C
Experimental: (§1) Liver microsomal stability by the compounds prepared according to Examples 1 to 46 was confirmed. Specifically, four types of liver microsomes (human, dog, rat, and mouse each at 0.5 mg/mL), 0.1 M phosphate buffer solution (pH 7.4), and the compounds at 1 µM concentration were added and pre-incubated at 37°C for 5 minutes, and then NADPH generation system solution was added and incubated at 37°C for an additional 30 minutes. Thereafter, an acetonitrile solution containing an internal standard (chloropropamide) was added to terminate the reaction, and after centrifugation for 5 minutes (14,000 rpm, 4°C), the supernatant was injected into an LC-MS/MS system to analyze the substrate drug, thereby evaluating the metabolic stability of 8 compounds.
(§2) The amount of remaining substrate through the reaction was analyzed using a Shimadzu Nexera XR system and TSQ vantage (Thermo). A Kinetex XB-C18 (2.1 × 100 mm, 2.6 µm, particle size; Phenomenex, USA) was used as the HPLC column, and (A) distilled water containing 0.1% formic acid and (B) acetonitrile containing 0.1% formic acid were used as mobile phases. Analyst software (version 1.6.3) and Xcalibur (version 1.6.1) were used for data analysis. The calculated results are shown in Table 5 below: Liver microsomal stability data of novel compounds from […] (human, rat, and mouse).

[2] = target: T1, CYP2D6 (Homo sapiens, UniProt P10635); assay: CYP isoenzyme activity inhibition in human liver microsomes, CYP2D6; format: in vitro ADME; conditions: 10 µM compound; human liver microsomes 0.25 mg/mL; relative to control without compound
T1 construct: human liver microsomes (0.25 mg/mL); from tissue; host or cells: human liver microsomes
Experimental: (§3) The CYP isoenzyme activity inhibitory effect by the compounds prepared according to Examples 1 to 46 was confirmed. Specifically, human liver microsomes (0.25 mg/mL), 0.1 M phosphate buffer solution (pH 7.4), a substrate drug cocktail of five drug metabolizing enzymes (Phenacetin 50 µM, Diclofenac 10 µM, S-mephenytoin 100 µM, Dextromethorphan 5 µM, and Midazolam 2.5 µM), and the compounds were added at concentrations of 0 or 10 µM, respectively, and pre-incubated at 37°C for 5 minutes, and then NADPH generation system solution was added and incubated at 37°C for an additional 15 minutes. Thereafter, an acetonitrile solution containing an internal standard (Terfenadine) was added to terminate the reaction, and after centrifugation for 5 minutes (14,000 rpm, 4°C), the supernatant was injected into an LC-MS/MS system to simultaneously analyze the metabolites of the substrate drugs, thereby evaluating the drug metabolizing enzyme inhibitory activity.
(§4) The metabolites of each CYP isoenzyme marker drug generated through the reaction were analyzed using a Shimadzu Nexera XR system and TSQ vantage (Thermo). A Kinetex C18 (2.1 × 100 mm, 2.6 µm, particle size; Phenomenex, USA) was used as the HPLC column, and (A) distilled water containing 0.1% formic acid and (B) acetonitrile containing 0.1% formic acid were used as mobile phases, and a gradient program as shown in Table 6 below was applied.
(§5) The generated metabolites were quantified using MRM (Multiple Reaction Monitoring) quantitative mode, and Xcalibur (version 1.6.1) was used for data analysis. To show the CYP isoenzyme activity inhibitory effect of the novel compounds prepared according to the Examples of the disclosure, the % activity of CYP isoenzymes relative to the control group without compound addition is shown in Table 6 below. Additionally, to confirm the difference in effect according to substituents, Comparative Compounds 1 and 5, which are two compounds that share a similar parent nucleus structure with Compounds 1 to 46 of the disclosure while Cy is substituted with aromatic heteroaryl instead of saturated heterocyclyl, were selected as comparative compounds and their activities are shown together.

[3] = test system: Tau-BiFC cells; assay: Cell viability (stained nuclei count) in Tau-BiFC cells; format: cell-based; conditions: @10 µM; Tau-BiFC cell line; Forskolin-only group = 100%
Procedure, shortened: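 Tau-BiFC cells were co-treated with compound (1, 3, 10 µM for screening; 0.03–30 µM for IC50) and 30 µM Forskolin for 48 h. BiFC fluorescence was normalised to the Forskolin-only window for aggregation; viability came from Hoechst-stained nuclei counts relative to Forskolin-only (100%). IC50 was derived by nonlinear regression.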

[4] = target: T2, CYP2C9 (Homo sapiens, UniProt P11712); assay: CYP isoenzyme activity inhibition in human liver microsomes, CYP2C9; format: in vitro ADME; conditions: 10 µM compound; human liver microsomes 0.25 mg/mL; relative to control without compound
T2 construct: human liver microsomes (0.25 mg/mL); from tissue; host or cells: human liver microsomes
Experimental: as §3, §4, §5

[5] = target: T3, CYP3A4 (Homo sapiens, UniProt P08684); assay: CYP isoenzyme activity inhibition in human liver microsomes, CYP3A4; format: in vitro ADME; conditions: 10 µM compound; human liver microsomes 0.25 mg/mL; relative to control without compound
T3 construct: human liver microsomes (0.25 mg/mL); from tissue; host or cells: human liver microsomes
Experimental: as §3, §4, §5

[6] = Liver microsomal stability, human; format: in vitro ADME; conditions: 1 µM compound; 0.5 mg/mL microsomes; NADPH; 30 minutes at 37°C
Experimental: as §1, §2

T1 sequence (P10635 whole entry): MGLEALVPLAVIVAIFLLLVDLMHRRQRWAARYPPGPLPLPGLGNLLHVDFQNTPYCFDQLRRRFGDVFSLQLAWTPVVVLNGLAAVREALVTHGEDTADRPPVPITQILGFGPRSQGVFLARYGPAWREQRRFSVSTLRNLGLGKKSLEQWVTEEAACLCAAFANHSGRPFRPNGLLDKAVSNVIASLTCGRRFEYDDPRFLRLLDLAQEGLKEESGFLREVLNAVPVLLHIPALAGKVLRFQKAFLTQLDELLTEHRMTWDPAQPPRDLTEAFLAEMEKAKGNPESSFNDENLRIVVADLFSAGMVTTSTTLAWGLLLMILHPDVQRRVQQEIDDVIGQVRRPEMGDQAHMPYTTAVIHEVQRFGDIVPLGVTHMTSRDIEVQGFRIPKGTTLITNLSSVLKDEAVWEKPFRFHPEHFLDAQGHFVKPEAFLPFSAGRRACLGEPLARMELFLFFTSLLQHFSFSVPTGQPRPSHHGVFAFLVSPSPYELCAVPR
T3 sequence (P08684 whole entry): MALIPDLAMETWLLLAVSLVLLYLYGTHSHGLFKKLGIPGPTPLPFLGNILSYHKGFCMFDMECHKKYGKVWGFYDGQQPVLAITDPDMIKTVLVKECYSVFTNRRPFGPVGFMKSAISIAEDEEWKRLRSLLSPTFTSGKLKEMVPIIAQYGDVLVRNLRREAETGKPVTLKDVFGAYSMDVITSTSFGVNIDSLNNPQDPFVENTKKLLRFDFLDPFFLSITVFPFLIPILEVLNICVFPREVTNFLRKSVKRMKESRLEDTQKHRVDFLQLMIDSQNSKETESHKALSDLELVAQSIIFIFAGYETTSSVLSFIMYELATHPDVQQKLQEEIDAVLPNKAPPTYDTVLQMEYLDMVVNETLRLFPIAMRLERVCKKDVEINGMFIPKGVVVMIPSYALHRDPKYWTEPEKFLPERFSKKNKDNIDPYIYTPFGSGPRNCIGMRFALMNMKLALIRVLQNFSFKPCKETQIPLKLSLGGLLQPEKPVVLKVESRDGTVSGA
T2 sequence (P11712 whole entry): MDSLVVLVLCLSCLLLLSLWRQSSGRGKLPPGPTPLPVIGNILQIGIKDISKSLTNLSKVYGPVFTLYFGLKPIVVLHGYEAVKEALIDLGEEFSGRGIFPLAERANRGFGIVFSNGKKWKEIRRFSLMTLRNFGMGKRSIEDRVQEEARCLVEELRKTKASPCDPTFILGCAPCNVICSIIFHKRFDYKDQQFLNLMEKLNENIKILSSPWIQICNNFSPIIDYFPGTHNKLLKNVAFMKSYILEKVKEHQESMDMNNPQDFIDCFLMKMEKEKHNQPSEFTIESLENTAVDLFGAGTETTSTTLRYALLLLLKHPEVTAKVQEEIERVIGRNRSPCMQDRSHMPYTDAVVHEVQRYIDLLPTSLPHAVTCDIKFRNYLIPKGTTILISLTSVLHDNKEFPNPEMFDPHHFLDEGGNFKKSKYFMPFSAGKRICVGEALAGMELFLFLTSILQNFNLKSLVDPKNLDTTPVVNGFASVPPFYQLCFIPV

With `CC1CN(c2nc3ccc(NN=C(C#N)C#N)cc3s2)CC(C)O1` (stereo not drawn) [Compound 10, (2-(2,6-dimethylmorpholino)benzo[d]thiazol-6-yl)carbonohydrazonoyl dicyanide] the “Mouse microsomes (% remaining)” value [1] was 87.3 % remaining, the “CYP2D6 (% activity)” value [2] was 93.8 % activity and the “Cell viability (% @10µM)” value [3] was 109%. For the same compound, the “CYP2C9 (% activity)” value [4] was 76.8 % activity, the “CYP3A4 (% activity)” value [5] was 74.5 % activity and the “Human microsomes (% remaining)” value [6] was 69.4 % remaining.

With `N#CC(C#N)=NNc1ccc2nc(NC(=O)N3CCOCC3)sc2c1` [Compound 38, (2-(morpholine-4-carboxamido)benzo[d]thiazol-6-yl)carbonohydrazonoyl dicyanide] the “Mouse microsomes (% remaining)” value [1] was 86.1 % remaining, the “CYP2D6 (% activity)” value [2] was 95.7 % activity and the “Cell viability (% @10µM)” value [3] was 97%. For the same compound, the “CYP2C9 (% activity)” value [4] was 73.6 % activity, the “CYP3A4 (% activity)” value [5] was 86.7 % activity and the “Human microsomes (% remaining)” value [6] was 87.6 % remaining.

For `CC(=O)N1CCN(c2nc3ccc(NN=C(C#N)C#N)cc3o2)CC1` [Compound 31, (2-(4-acetylpiperazin-1-yl)benzo[d]oxazol-6-yl)carbonohydrazonoyl dicyanide], the “Mouse microsomes (% remaining)” value [1] was greater than 100 % remaining, the “CYP2D6 (% activity)” value [2] was 93.3 % activity and the “Cell viability (% @10µM)” value [3] was 100%. The “CYP2C9 (% activity)” value [4] was 88.8 % activity, the “CYP3A4 (% activity)” value [5] was 88.3 % activity and the “Human microsomes (% remaining)” value [6] was 99.9 % remaining.

In the case of `Cn1c(N2C3CCC2COC3)nc2cc(NN=C(C#N)C#N)ccc21` [Compound 35, (2-(3-oxa-8-azabicyclo[3.2.1]octan-8-yl)-1-methyl-1H-benzo[d]imidazol-5-yl)carbonohydrazonoyl dicyanide], the “Mouse microsomes (% remaining)” value [1] is reported as 95.1 % remaining, the “CYP2D6 (% activity)” value [2] is reported as 94.9 % activity and the “Cell viability (% @10µM)” value [3] is reported as 100%. For the same compound, the “CYP2C9 (% activity)” value [4] was 84.3 % activity, the “CYP3A4 (% activity)” value [5] was 86.1 % activity and the “Human microsomes (% remaining)” value [6] was 94.3 % remaining.

For `COC1CCN(c2nc3ccc(NN=C(C#N)C#N)cc3o2)CC1` [Compound 17, (2-(4-methoxypiperidin-1-yl)benzo[d]oxazol-6-yl)carbonohydrazonoyl dicyanide], the “Mouse microsomes (% remaining)” value [1] was greater than 100 % remaining, the “CYP2D6 (% activity)” value [2] was 89.5 % activity and the “Cell viability (% @10µM)” value [3] was 100%. The “CYP2C9 (% activity)” value [4] was 73.8 % activity, the “CYP3A4 (% activity)” value [5] was 87.1 % activity and the “Human microsomes (% remaining)” value [6] was 16.7 % remaining.

With `N#CC(C#N)=NNc1ccc2nc(N3C4CCC3COC4)sc2c1` [Compound 11, (2-(3-oxa-8-azabicyclo[3.2.1]octan-8-yl)benzo[d]thiazol-6-yl)carbonohydrazonoyl dicyanide] the “Mouse microsomes (% remaining)” value [1] was 87.8 % remaining, the “CYP2D6 (% activity)” value [2] was 98.6 % activity and the “Cell viability (% @10µM)” value [3] was 100%. For the same compound, the “CYP2C9 (% activity)” value [4] was 70.2 % activity, the “CYP3A4 (% activity)” value [5] was 78.4 % activity and the “Human microsomes (% remaining)” value [6] was 81.3 % remaining.

For `CC1CN(c2nc3ccc(NN=C(C#N)C#N)cc3o2)CC(C)O1` (stereo not drawn) [Compound 18, (2-(2,6-dimethylmorpholino)benzo[d]oxazol-6-yl)carbonohydrazonoyl dicyanide], the “Mouse microsomes (% remaining)” value [1] was 86.2 % remaining, the “CYP2D6 (% activity)” value [2] was 97 % activity and the “Cell viability (% @10µM)” value [3] was 100%. The “CYP2C9 (% activity)” value [4] was greater than 100 % activity, the “CYP3A4 (% activity)” value [5] was 94.6 % activity and the “Human microsomes (% remaining)” value [6] was 95.8 % remaining.

With `N#CC(C#N)=NNc1ccc2nc(N3CCOCC3)oc2c1` [Compound 4, (2-morpholinobenzo[d]oxazol-6-yl)carbonohydrazonoyl dicyanide] the “Mouse microsomes (% remaining)” value [1] was 98.5 % remaining, the “CYP2D6 (% activity)” value [2] was greater than 100 % activity and the “Cell viability (% @10µM)” value [3] was 100%. For the same compound, the “CYP2C9 (% activity)” value [4] was 93.2 % activity, the “CYP3A4 (% activity)” value [5] was 94 % activity and the “Human microsomes (% remaining)” value [6] was 93.5 % remaining.

For `CC1CN(C(=O)Nc2nc3ccc(NN=C(C#N)C#N)cc3s2)CC(C)O1` (stereo not drawn) [Compound 39, (2-(2,6-dimethylmorpholine-4-carboxamido)benzo[d]thiazol-6-yl)carbonohydrazonoyl dicyanide], the “Mouse microsomes (% remaining)” value [1] was 88.4 % remaining, the “CYP2D6 (% activity)” value [2] was 85.9 % activity and the “Cell viability (% @10µM)” value [3] was 98%. The “CYP2C9 (% activity)” value [4] was 42.9 % activity, the “CYP3A4 (% activity)” value [5] was 56.5 % activity and the “Human microsomes (% remaining)” value [6] was 83.8 % remaining.

With `N#CC(C#N)=NNc1ccc2nc(N3CCOCC3)sc2c1` [Compound 2, (2-morpholinobenzo[d]thiazol-6-yl)carbonohydrazonoyl dicyanide] the “Mouse microsomes (% remaining)” value [1] was 94.10 % remaining, the “CYP2D6 (% activity)” value [2] was greater than 100 % activity and the “Cell viability (% @10µM)” value [3] was 100%. The “CYP2C9 (% activity)” value [4] was 95.1 % activity, the “CYP3A4 (% activity)” value [5] was 95.7 % activity and the “Human microsomes (% remaining)” value [6] was 74.3 % remaining.

With `COC1CCN(c2nc3ccc(NN=C(C#N)C#N)cc3s2)CC1` [Compound 9, (2-(4-methoxypiperidin-1-yl)benzo[d]thiazol-6-yl)carbonohydrazonoyl dicyanide] the “Mouse microsomes (% remaining)” value [1] was 83.8 % remaining, the “CYP2D6 (% activity)” value [2] was greater than 100 % activity and the “Cell viability (% @10µM)” value [3] was 100%. For the same compound, the “CYP2C9 (% activity)” value [4] was 60.7 % activity, the “CYP3A4 (% activity)” value [5] was 66.1 % activity and the “Human microsomes (% remaining)” value [6] was 5.0 % remaining.

With `Cn1c(N2CCOCC2)nc2cc(NN=C(C#N)C#N)ccc21` [Compound 6, (1-methyl-2-morpholino-1H-benzo[d]imidazol-5-yl)carbonohydrazonoyl dicyanide] the “Mouse microsomes (% remaining)” value [1] was 87.3 % remaining, the “CYP2D6 (% activity)” value [2] was greater than 100 % activity and the “Cell viability (% @10µM)” value [3] was 104%. The “CYP2C9 (% activity)” value [4] was greater than 100 % activity, the “CYP3A4 (% activity)” value [5] was 96.7 % activity and the “Human microsomes (% remaining)” value [6] was 90 % remaining.

In the case of `Cn1c(N2CCOCC2)nc2ccc(NN=C(C#N)C#N)cc21` [Compound 5, (1-methyl-2-morpholino-1H-benzo[d]imidazol-6-yl)carbonohydrazonoyl dicyanide], the “Mouse microsomes (% remaining)” value [1] is reported as 91.9 % remaining, the “CYP2D6 (% activity)” value [2] is reported as greater than 100 % activity and the “Cell viability (% @10µM)” value [3] is reported as 100%. The “CYP2C9 (% activity)” value [4] was 98 % activity, the “CYP3A4 (% activity)” value [5] was 86.1 % activity and the “Human microsomes (% remaining)” value [6] was 77.8 % remaining.

In the case of `CC(=O)N1CCN(c2nc3ccc(NN=C(C#N)C#N)cc3s2)CC1` [Compound 30, (2-(4-acetylpiperazin-1-yl)benzo[d]thiazol-6-yl)carbonohydrazonoyl dicyanide], the “Mouse microsomes (% remaining)” value [1] is reported as 83.8 % remaining, the “CYP2D6 (% activity)” value [2] is reported as 88.9 % activity and the “Cell viability (% @10µM)” value [3] is reported as 99%. The “CYP2C9 (% activity)” value [4] was 86.2 % activity, the “CYP3A4 (% activity)” value [5] was 74.6 % activity and the “Human microsomes (% remaining)” value [6] was greater than 100 % remaining.

With `CC1COCCN1c1nc2ccc(NN=C(C#N)C#N)cc2o1` (stereo not drawn) [Compound 16, (2-(3-methylmorpholino)benzo[d]oxazol-6-yl)carbonohydrazonoyl dicyanide] the “Mouse microsomes (% remaining)” value [1] was 89.5 % remaining, the “CYP2D6 (% activity)” value [2] was 92.1 % activity and the “Cell viability (% @10µM)” value [3] was 100%. The “CYP2C9 (% activity)” value [4] was 87 % activity, the “CYP3A4 (% activity)” value [5] was 96.7 % activity and the “Human microsomes (% remaining)” value [6] was 79.8 % remaining.
